From patent US9427426B2 (priority 2008, dated 2016)
Like-named read-outs stand apart in the source and are kept apart here.

What was measured:
[1] = cited from earlier work; for solubility in water, in words: water (NAC: at 20° C.)
rat = conditions: cited from earlier work
[2] = tested on: rats intoxicated with lead (lead acetate); experiment: Example 1: erdosteine per os vs NAC per os in rats intoxicated with lead; type: in vivo, Wistar rats; conditions: erdosteine 875 mg/kg or NAC 500 mg/kg per os once a day for 7 days
Experimental: (§1) 3. […] NAC has been mixed with bidistilled water, the resulting solution being administered in volume of 10 ml/kg.
(§2) 4. […] Erdosteine has been mixed with bidistilled water and sodium hydrogen carbonate equimolar, the resulting solution being administered in volume of 10 ml/kg.
(§3) Mortality has been recorded. […] Few animals have been collected urine eliminated spontaneously for Pb—Hg analysis. Animals have been sacrificed under general anesthesia with ether. 6 animals of each group (3 males and 3 females) have been randomly selected for macroscopic and microscopic anatomic-pathological examination.

[3] = tested on: rats intoxicated with lead (lead acetate); experiment: Example 2: erdosteine i.v. vs NAC i.v. in rats intoxicated with lead; type: in vivo, Wistar rats
Experimental: (§4) The animals have been randomly divided in 11 lots.
(§5) 3. […] NAC has been dissolved in bidistilled water.
(§6) 4. […] Erdosteine has been solubilized in bidistilled water and sodium hydrogen carbonate equimolar, the resulting solution being administered in volume of 10 ml/kg. Preliminarily we tested the different molar ratios erdosteine/sodium hydrogen carbonate in a range between 0.5:1 and 1.5:1 and the volume to be solubilized. […] Animals Monitoring:
as §3

[4] = tested on: rats intoxicated with mercury (mercury chloride); experiment: Example 2: erdosteine i.v. vs NAC i.v. in rats intoxicated with mercury; type: in vivo, Wistar rats
Experimental: as §4, §5, §6, §3

[5] = tested on: rats intoxicated with mercury (mercury chloride); experiment: Example 1: erdosteine per os vs NAC per os in rats intoxicated with mercury; type: in vivo, Wistar rats; conditions: erdosteine 875 mg/kg or NAC 500 mg/kg per os once a day for 7 days
Experimental: as §1, §2, §3

[6] = tested on: rats intoxicated with paracetamol; experiment: Example 4: erdosteine i.v. vs NAC i.v. in rats intoxicated with paracetamol; type: in vivo, Wistar rats
Excerpt: Experiment has been carried on in parallel with experiment of example 3 and results of animals not intoxicated not treated (lot1) have been used as reference.
as §5
Animals have been monitored as described in example 3.
Mortality has been recorded.

[7] = Pb intoxicated (lead acetate 4665 mg/kg per os), 30 animals/lot
[8] = survivors after 7 days, Pb intoxicated
[9] = Pb intoxicated (lead acetate 4665 mg/kg per os), ERDO1 = erdosteine 350 mg/kg i.v. or NAC 114 mg/kg i.v. once a day for 7 days, 35 animals/lot
[10] = Pb intoxicated, ERDO1 = erdosteine 350 mg/kg i.v. or NAC 114 mg/kg i.v. once a day for 7 days
[11] = survivors after 7 days, Pb intoxicated, ERDO1 = erdosteine 350 mg/kg i.v. or NAC 114 mg/kg i.v. once a day
[12] = Hg intoxicated (mercury chloride 42 mg/kg per os), ERDO1 = erdosteine 350 mg/kg i.v. or NAC 114 mg/kg i.v. once a day for 7 days, 35 animals/lot
[13] = Hg intoxicated, ERDO1 = erdosteine 350 mg/kg i.v. or NAC 114 mg/kg i.v. once a day for 7 days
[14] = survivors after 7 days, Hg intoxicated, ERDO1 = erdosteine 350 mg/kg i.v. or NAC 114 mg/kg i.v. once a day
[15] = Hg intoxicated (mercury chloride 42 mg/kg per os), 30 animals/lot
[16] = survivors after 7 days, Hg intoxicated
[17] = paracetamol […] per os, erdosteine 350 mg/kg i.v. or NAC 114 mg/kg i.v. once a day for 7 days, 30 animals/lot
[18] = paracetamol intoxicated, erdosteine 350 mg/kg i.v. or NAC 114 mg/kg i.v., 7 days
[19] = survivors at 7 days, paracetamol intoxicated, erdosteine 350 mg/kg i.v. or NAC 114 mg/kg i.v.

OCC(S)CS (centres unmarked) [Dimercaprol, 2,3,Dimercapto1-propanol]
solubility in water, in words [1]: hardly soluble | LD50 i.v. (rat; rat, i.v.): 105 mg/kg

CC(=O)N[C@@H](CS)C(=O)O [NAC, N-Acetylcysteine]
Mortality in percent [2, 7]: 30% | Mortality total [2, 7]: 9 | Anatomical pathology: lesions (macroscopic and microscopic examination) ([2]; Pb intoxicated): did not improve lesions | Pb in urine, Pb mean values ([2]; Pb intoxicated, GS MS Varian 4100): 13.2 mg/L | Creatinine mean values [2, 8]: 0.66 ^3 mK/dl | Haematocrit mean values [2, 8]: 41.42^3 | Haemoglobin mean values [2, 8]: 13.58^3 g/dl | Leucocytes mean values [2, 8]: 6.82^3 | Urea mean values [2, 8]: 104.15 ^3 mg/dl | Uric acid mean value [2, 8]: 2.36 ^1 mg/dl | erythrocytes mean values [2, 8]: 6.55^3 *10^6/mm^3 | Mortalitaty total [3, 9]: 28 ^3 | Mortality in percent [3, 9]: 80% | Anatomical pathology: lesions [3, 10]: did not improve lesions | Pb in urine, Pb mean values [3, 10]: 12.9 mg/L | Creatinine mean values [3, 11]: 0.78 ^4 mK/dl | Haematocrit mean values [3, 11]: 35.48 ^3 | Haemoglobin mean values [3, 11]: 15.86 ^3 g/dl | Leucocytes mean values [3, 11]: 16.36 ^3 | Urea mean values [3, 11]: 80.98 ^4 mg/dl | Uric acid mean value [3, 11]: 2.13 ^4 mg/dl | erythrocytes mean values [3, 11]: 6.93 ^3 *10^6/mm^3 | Mortalitaty total [4, 12]: 30 ^3 | Mortality in percent [4, 12]: 85.7% | Anatomical pathology: lesions [4, 13]: least severe damages | Hg in urine mean values [4, 13]: 13.9 mg/L | Creatinine mean values [4, 14]: 1.06 ^4 mK/dl | Haematocrit mean values [4, 14]: 38.97 ^3 | Haemoglobin mean values [4, 14]: 14.57 ^3 g/dl | Leucocytes mean values [4, 14]: 10.5 ^3 | Urea mean values [4, 14]: 79.52 ^4 mg/dl | Uric acid mean value [4, 14]: 2.02 ^4 mg/dl | erythrocytes mean values [4, 14]: 6.76 ^3 *10^6/mm^3 | Mortality in percent [5, 15]: 33.3% | Mortality total [5, 15]: 10^2^ | Anatomical pathology: lesions (macroscopic and microscopic examination) ([5]; Hg intoxicated): less important lesions | Hg in urine mean values ([5]; Hg intoxicated, GS MS Varian 4100): 11.5 mg/L | Creatinine mean values [5, 16]: 0.56 ^3 mK/dl | Haematocrit mean values [5, 16]: 41.50^3 | Haemoglobin mean values [5, 16]: 13.58^3 g/dl | Leucocytes mean values [5, 16]: 6.72^3 | Urea mean values [5, 16]: 85.45 ^3 mg/dl | Uric acid mean value [5, 16]: 2.38 ^1 mg/dl | erythrocytes mean values [5, 16]: 6.92^3 *10^6/mm^3 | solubility in water, in words [1]: slightly soluble | LD50 i.v. (rat; rat, in vivo, iv): 1140 mg/kg | LD50 per os (rat; rat, in vivo): 5050 mg/kg | Mortality percentual [6, 17]: 20% | Total mortality [6, 17]: 6/30 | Renal aggression (urine summary), in words ([6]; paracetamol intoxicated, erdosteine 350 mg/kg i.v. or NAC 114 mg/kg i.v.): antagonized | Urine summary: Bil. [6, 18]: 3 mg/dL | Urine summary: Chet [6, 18]: neg | Urine summary: Density [6, 18]: 1015 | Urine summary: Erythrocyte [6, 18]: 25 µL⁻¹ | Urine summary: Glucose [6, 18]: neg | Urine summary: Leuc [6, 18]: 25 µL⁻¹ | Urine summary: Prot. [6, 18]: 75 mg/dL | Urine summary: UBG [6, 18]: 1 mg/dL | Urine summary: pH [6, 18]: 6.8 | ALT [6, 19]: 206.6^1 | AST [6, 19]: 42.6^2 | HCT [6, 19]: 41.7^1 | PLT [6, 19]: 550.8^1 | RBC [6, 19]: 7.20^1 | Urea [6, 19]: 74.76^1 | Uric acid [6, 19]: 2.574^1

[Cl][Hg][Cl] [mercury chloride]
solubility in water ([1]; water at 20° C.): 7.4 g/100 ml | LD50 per os (rat; per os, rat where given): 42 mg/kg

Lead acetate trihydrate
LD50 per os (rat; per os, rat where given): 4665 mg/kg
